Results: paper PMC12811501, “A plant-derived antimicrobial peptide with multiple mechanisms of action exhibiting antibacterial and antibiofilm activities comparable to or superior to polymyxin B” (Current Research in Microbial Sciences, 2025)
Converted amounts (≈) assume the structure as drawn. Residues, ends and D or L forms follow the SMILES beside them.

Tests used:
[1] = system: circular plasmid DNA (pDEST-GBKT7); experiment: Gel retardation assay; format: binding; settings: 250 ng circular plasmid DNA, peptide 50 µM to 0.8 µM
Method: The DNA- and RNA-binding abilities of NCR169C17–38, its parental peptide NCR169, and two shorter derivatives (NCR169_16–27 and NCR169_17–27) were initially evaluated using a gel retardation assay. In this setup, 100 ng of either E. coli genomic DNA or total RNA was incubated with 10 µM or 100 µM of each peptide for 30 min at 37 °C. Reaction mixtures, along with untreated controls, were then subjected to agarose gel electrophoresis, and the resulting nucleic acid migration patterns were examined for changes indicative of peptide binding. The interaction of NCR169C17–38 with circular plasmid DNA (pDEST-GBKT7) was also characterized using peptide concentrations ranging from 50 µM to 0.8 µM, prepared by 2-fold serial dilution. Experiments were done in three biological replicates.
To explore whether the NCR169C17–38 peptide has secondary intracellular targets of the bacterial cells beyond the primary membrane disruption, we tested its possible interaction with nucleic acids in gel retardation assays. A pilot experiment indicated strong DNA-binding capacity, prompting us to include the parental NCR169 peptide and the shorter derivatives NCR169_16–27 and NCR169_17–27 for comparison (Fig. 3.). […] Similar results were obtained with total E. coli RNA (Fig. 3.B). […]

E. coli [2] = experiment: Live/Dead staining (SYTO 9 / PI) of membrane integrity, confocal microscopy; format: cell-based, Escherichia coli; settings: 10 min
Method: Microbial cell membrane integrity or damage was assayed with Live/Dead staining. E. coli were grown as for the antimicrobial activity assay and washed with PPB. […] Untreated cells served as negative control. Cells were subsequently stained with 5 μM SYTO 9 and 5 μM propidium iodide (PI). After a 10-minute incubation in the dark, 5 µl of each cell suspension was placed on a microscope slide, covered with thin 2 % (w/v) agar slices, and examined using an Olympus Fluoview FV1000 confocal laser microscope at × 60 magnification. For SYTO 9, excitation was at 488 nm and emission was collected between 500 and 530 nm; for PI, excitation was at 543 nm with emission detected between 555 and 655 nm. Sequential scanning was used to avoid crosstalk of the fluorescent dyes.
Next, we investigated whether the application of NCR169C17–38 peptide affects membrane permeability of E. coli, and if so, to what extent and how rapidly these changes occur.

Candida species = settings: ref Szerencsés et al., 2021; cited from earlier work
Text: (§1) NCR169 is another NCR peptide essential for differentiation of nitrogen fixing bacteroids in Medicago species ([Horváth et al., 2015]). This 38-amino-acid peptide contains four cysteines that are critical for its symbiotic function in planta.

Cryptococcus neoformans = settings: ref Szerencsés et al., 2025; cited from earlier work
Text: as §1

E. coli [3] = experiment: Real-time PI uptake; format: cell-based, Escherichia coli
Method: To monitor PI uptake in real time, 10 µl of E. coli suspension (OD₆₀₀ = 0.1, prepared as described above) was mixed with 90 µl of PPB containing a two-fold serial dilution of NCR169C17–38 (12.5 µM to 0.8 µM) or polymyxin B (0.8 µM), along with 200 ng/ml PI. Fluorescence was recorded using a Hidex Sense Microplate Reader (software version 5064) with excitation and emission wavelengths set at 535 nm and 617 nm, respectively. Experiments were repeated three times.
To get a more precise assessment of how rapidly NCR169C17–38 induces membrane damage, we monitored PI uptake in real time. E. coli was treated in a microtiter plate with two-fold dilutions of NCR169C17–38 (12.5 - 0.8 µM) and PI fluorescence was measured using a plate reader (Fig. 2.C). For comparison, polymyxin B, a well-known membrane-permeabilizing/damaging antibiotic, was included as a control. A rapid rise in fluorescence within 1–2 min was observed upon exposure to NCR169C17–38 at MBC or higher concentrations, indicating swift membrane permeabilization.

[4] = system: HindIII-digested lambda phage DNA; experiment: Real-time DNA binding by SYBR Gold fluorescence; settings: 100 ng DNA, 10 µM peptide added at 0 or 14 min, room temperature
Method: (§2) In addition, DNA-binding kinetics were monitored in real time using a Hidex Sense plate reader at room temperature in three independent experiments. Reaction mixtures contained 100 ng of HindIII-digested lambda phage DNA in 1 × SYBR Gold (Thermo Scientific), either without peptide or with 10 µM of NCR169C17–38 (2.74041 µg), NCR169 (4.56545 µg), NCR169_16–27 (1.56597 µg), or NCR169_17–27 (1.40279 µg). Peptides were added either at the start (0 min) or at 14 min. Fluorescence from DNA-bound SYBR Gold was measured every 3 min (excitation 490 nm, emission 535 nm). At 27 min, proteinase K (1 mg/ml; 100 µg final) was added to peptide-treated samples to assess the effect on peptide–DNA binding. Experiments were done in three biological replicates.
(§3) The DNA-binding kinetics were quantified using SYBR Gold fluorescence (Fig. 3.D). […] To test if peptide removal would recover the DNA–SYBR Gold fluorescence to control values, Proteinase K was added at 27 min to all reactions. […] In contrast, fluorescence values in the NCR169 samples remained unchanged, while those of NCR169C17–38 or NCR169_17–27 increased slightly and gradually to the same limited extent.

S. aureus = format: cell-based, Staphylococcus aureus; settings: 8 h
Method: For serum stability test human blood was purchased from the Regional Blood Centre in Szeged (the use of human blood has been authorized by the Regional Hungarian Ethics Committee and approved by the Ethics Review Sector of DG RTD (European Commission) in connection with EK’s ERC AdG SymBiotics). The cells from 10 ml of EDTA-blood were centrifuged at 1500 × g for 1 min and washed several times in TBS buffer (10 mM Tris, pH: 7.2, 150 mM NaCl) until the supernatant, representing the serum, became colorless. The NCR169C17–38 peptide was added to the serum at 1:1 ratio and incubated at room temperature for 8 h. Subsequently, serial 2-fold dilutions of the peptide were prepared in PPB, with concentrations ranging from 100 to 0.2 µM and antimicrobial assay was done to determine the MBC values. Experiments were done in three biological replicates.

Proteinase K = Proteinase K (Parengyodontium album, UniProt P06873); experiment: Proteinase K treatment of peptide-DNA samples (recovery of SYBR Gold fluorescence); settings: Proteinase K 1 mg/ml added at 27 min to peptide-DNA-SYBR Gold samples, 10 µM peptide
Chain of Proteinase K (P06873 106-384): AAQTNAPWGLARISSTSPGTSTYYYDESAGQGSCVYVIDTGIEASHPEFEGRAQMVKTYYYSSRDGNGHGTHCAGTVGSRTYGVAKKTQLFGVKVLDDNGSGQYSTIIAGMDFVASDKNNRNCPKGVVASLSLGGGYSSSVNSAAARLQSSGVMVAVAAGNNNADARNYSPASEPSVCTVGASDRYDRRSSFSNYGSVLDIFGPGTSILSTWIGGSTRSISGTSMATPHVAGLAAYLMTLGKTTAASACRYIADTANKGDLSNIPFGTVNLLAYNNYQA
Method: as §2, §3

SMILES: CC[C@H](C)[C@H](NC(=O)[C@H](CCCCN)NC(=O)[C@H](Cc1ccccc1)NC(=O)[C@H](CC(C)C)NC(=O)[C@@H]1CCCN1C(=O)[C@H](CCCCN)NC(=O)[C@H](CCCCN)NC(=O)[C@H](CO)NC(=O)[C@@H](N)CCCCN)C(=O)N[C@@H](Cc1c[nH]c2ccccc12)C(=O)N[C@@H](CCCCN)C(=O)N[C@@H](CS)C(=O)N[C@H](C(=O)N[C@@H](CCC(=O)O)C(=O)N[C@@H](CC(N)=O)C(=O)N[C@H](C(=O)N[C@@H](CS)C(=O)N[C@H](C(=O)N[C@@H](CC(C)C)C(=O)N[C@@H](Cc1c[nH]c2ccccc12)C(=O)N[C@@H](Cc1ccc(O)cc1)C(=O)N[C@@H](CCCCN)C(N)=O)C(C)C)C(C)C)C(C)C [NCR169C17–38] (H-KSKKPLFKIWKCVENVCVLWYK-NH2; N-terminus assumed)
- plasmid DNA binding, gel retardation [1]: complete retention of DNA in the well at higher concentrations
- membrane integrity, SYTO 9 / PI staining (E. coli [2]; 0.8 µM peptide): predominantly red-stained cells
- membrane integrity, SYTO 9 / PI staining (E. coli [2]; 1.6 µM peptide): all cells appeared red
- antifungal activity (Candida species): potent antifungal activity
- antifungal activity (Cryptococcus neoformans): potent antifungal activity
- time to rapid rise in PI fluorescence (E. coli [3]; E. coli in PPB, peptide at MBC or higher concentrations (12.5-0.8 µM tested), 200 ng/ml PI): 1 to 2 min
- PI uptake kinetics compared at respective MBC values (E. coli [3]; E. coli, polymyxin B 0.8 µM as control): more rapidly and effectively than polymyxin B
- extent of SYBR Gold fluorescence signal reduction (hierarchy) [4]: NCR169C17–38 > NCR169 > NCR169_16–27 > NCR169_17–27
- MBC after pre-incubation in human serum (S. aureus): 3.1 µM (≈ 8.49 µg/mL)
- sensitivity to Proteinase K treatment (Proteinase K): only partial sensitivity
